Laboratory results: patent publication US11607378B2, “Cosmetic composition comprising amide-based compound” (Neopharm Co., Ltd., priority 2020, dated 2023)

Experiments:
p16^INK4A = test: Expression level of p16^INK4A by Western blot after blue light; format: cell-based; conditions: human dermal fibroblasts, blue light 40 J/cm^2, sample 100 μM, 24 hours, Western blot (FIG. 1)
Procedure: (1) An expression level of p16^INK4A was determined through Western blot in Examples and Comparative Examples of the present invention.
Specifically, human dermal fibroblasts were cultured in a 12-well plate containing a Dulbecco's modified eagle medium (DMEM) medium supplemented with 10% fetal bovine serum (FBS) to attach 1.5×10^5 (1 mL/well) human dermal fibroblasts to the 12-well plate. The human dermal fibroblasts were cultured for 24 hours, and the medium was replaced with a 1% fetal bovine serum medium. Then, the human dermal fibroblasts were exposed to blue light of 40 J/cm^2, and then treated with each of the samples (100 μM) of Examples and Comparative Examples. Thereafter, the cells were additionally cultured at 37° C. for 24 hours. Then, the cells were recovered, and each of these samples was subjected to Western blot to analyze an expression level of p16^INK4A in the dermal fibroblasts. Each of samples of Examples 1 and 2 and Comparative Example 1 including the amide-based compound having a structure shown in the following Table 1 was used as the sample.
The control of FIG. 1 represents an experimental group in which the cells were not treated with the sample, and (-) represents a result of the experimental group exposed to blue light.

[1] = tested on: reactive oxygen species (ROS) in dermal fibroblasts; test: Effect of removing reactive oxygen species (ROS), DCF-DA fluorescence image; format: cell-based, human; conditions: blue light 40 J/cm^2, sample 100 μM, 24 hours, DCF-DA (FIG. 2)
Procedure: An effect of removing the reactive oxygen species was determined for the samples of Examples and Comparative Examples of the present invention.
An image analysis for generation of reactive oxygen species (ROS) in the cells was carried out by seeding 1×10^5 (100 μL/well) dermal fibroblasts in a 12-well plate to which a cover slip was attached. The dermal fibroblasts were exposed to blue light of 40 J/cm^2, and then treated with each of the samples (100 μM) of Examples and Comparative Examples. Then, the cells were additionally cultured at 37° C. for 24 hours.
After 24 hours, 100 μM DCF-DA was put into each well, and the cells were cultured at 37° C. for 45 minutes. After the cells were washed with PBS, the stained cells were put on a microscope slide containing a mounting medium. A microscopic image was observed as a fluorescent microscopic image.

[2] = tested on: superoxide dismutase (SOD); test: Effect on antioxidant activity (Superoxide Dismutase Activity Assay kit) after blue light; format: cell-based, human; conditions: dermal fibroblasts, blue light 40 J/cm^2, sample 100 μM, 48 hours (FIG. 3)
Procedure: Effects of the samples of Examples and Comparative Examples of the present invention on a change in antioxidant activity after irradiation with blue light were confirmed.
Specifically, 1.5×10^5 (1 mL/well) dermal fibroblasts were seeded in a 6-well plate, and cultured for 24 hours. The dermal fibroblasts were exposed to blue light of 40 J/cm^2, and then treated with each of the samples (100 μM) of Examples and Comparative Examples. After 48 hours, the cells were recovered. The cells were dissolved in a cell lysis buffer (pH 7.4) containing 0.1 M Tris/HCl, 0.5% Triton X-100, 5 mM β-ME, and 0.1 mg/ml PMSF, and a supernatant separated by centrifugation was then analyzed using a Superoxide Dismutase Activity Assay kit (ab65354). Then, the absorbance was measured at a wavelength of 450 nm in a microplate reader.

[3] = tested on: carbonylated protein in artificial skin (EpiDermFT); test: Effect on generation of carbonylated protein in artificial skin (DNPH assay, ICC staining); format: cell-based; conditions: sample 0.3% 50 μL, blue light 40 J/cm^2, 48 hours, image J quantification (FIG. 4)
Procedure: An artificial skin (EpiDermFT™ from MatTek, Ashland, USA) was purchased, and then stabilized for 18 hours in an exclusive medium (EFT-400). 50 μL of each of the samples of Examples and Comparative Examples was applied to the artificial skin at a concentration of 0.3%, and then cultured for an hour. The artificial skin was exposed to blue light of 40 J/cm^2. After 48 hours, the artificial skin tissue was fixed in 10% formaldehyde, and embedded into paraffin. Thereafter, the tissue was microtomed into sections with a size of […]. Then, the microtomed tissue was used to confirm an effect on a change in activity of the carbonylated protein.
The tissue was stained by a DNPH assay using an immunocytochemical (ICC) staining method, and then observed in a fluorescent microscopic image. Thereafter, the microscopic image was digitized using an image J program.

Row | Structure (SMILES) | expression level of p16^INK4A (p16^INK4A) [%] | inhibiting the generation of reactive oxygen species and removing the generated reactive oxygen species [1] | SOD activity (which had been reduced by 32.64% by blue light) [2] [%] | carbonylated protein (which had increased by 72.04% by blue light) [3] [%]
1 | CCCCC(CC)C(=O)NC(CO)CO (centres unmarked) [Comparative Example 1, N-(1,3-dihydroxypropan-2-yl)-2-ethylhexanamide, reference compound] | 120 | did not exhibit a significant effect |  | 
2 | CCCCC(C)C(=O)NCCO (centres unmarked) [Example 2, N-(2-hydroxyethyl)-2-methyl-hexanamide] | 53.9 |  | 92.3 | 16.67
